Assay results as given in publication PMC8041284, “Tunable Methacrylamides for Covalent Ligand Directed Release Chemistry” (Journal of the American Chemical Society, 2021).
Where two headings read alike, the source gives them in different places.

Biological target: BTK (Homo sapiens, UniProt Q06187)
Assay: biochemical
[1] = read-out: BTK inhibition (%), 0.75 uM BTK, […] probe 3l, 15 min preincubation

Sequence of BTK (Q06187 402-655 limits assumed): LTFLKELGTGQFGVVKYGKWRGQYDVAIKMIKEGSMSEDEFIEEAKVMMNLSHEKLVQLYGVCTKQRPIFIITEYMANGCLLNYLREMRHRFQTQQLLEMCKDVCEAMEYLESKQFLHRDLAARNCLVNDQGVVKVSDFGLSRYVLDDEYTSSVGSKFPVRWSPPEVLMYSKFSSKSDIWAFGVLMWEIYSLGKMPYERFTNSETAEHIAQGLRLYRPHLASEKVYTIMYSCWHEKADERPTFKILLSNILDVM

Structure (SMILES) | inhibition at 10 µM [1] [%] | inhibition at 10 µM (read-out: BTK inhibition (%)) [%]
OCCOCCN1CCN(C2=Nc3ccccc3Sc3ccccc32)CC1 [PCM-0086113] | -4.7 | –
CC[C@@H](CO)NCCN[C@@H](CC)CO [PCM-0090100] | 29.6 | –
O=c1[nH]cnc2c1ncn2[C@@H]1O[C@H](CO)[C@@H](O)[C@H]1O [PCM-0094864] | -3.1 | –
CC1=CC(=O)NS(=O)(=O)O1 [PCM-0090549] | -14 | –
NC12CC3CC(CC(C3)C1)C2 [PCM-0064405] | -14.8 | –
N[C@@H]1CCCCN(c2c(F)cc3c(=O)c(C(=O)O)cn(C4CC4)c3c2Cl)C1 [PCM-0095545] | -15.3 | –
O=[N+]([O-])c1ccc2c(c1)S(=O)(=O)C=C2 [PCM-0065368] | 40.9 | –
O=S(=O)(c1ccccc1)c1cnc2c(N3CCNCC3)cccc2c1 [PCM-0095346] | 3.1 | –
CCN[C@H]1CN(CCCOC)S(=O)(=O)c2sc(S(N)(=O)=O)cc21 [PCM-0086056] | -11.7 | –
C=CC(=O)Nc1ccc2ncnc(Nc3cccc(Br)c3)c2c1 [PCM-0095572] | 106 | –
COc1cc(OC2CCN(C)CC2)ccc1Nc1ncc2c(n1)n(C1CCCC1)c(=O)n2C [PCM-0095460] | -15.2 | –
CC(c1cc2ccccc2s1)N(O)C(N)=O (centres unmarked) [PCM-0086421] | -0.7 | –

Second part, the molecule after the results:

inhibition at 10 µM [1] [%] | inhibition at 10 µM (read-out: BTK inhibition (%)) [%] | Structure (SMILES)
17 | – | NC1=NC(=O)/C(=C/c2ccc(O)cc2)S1 [PCM-0215596]
86.5 | – | COc1ccc(S(=O)(=O)Nc2cc(-c3c(O)ccc4ccccc34)c(O)c3ccccc23)cc1 [PCM-0215905]
19.3 | – | CC1=C(C(=O)Nc2ccc3[nH]ncc3c2)C(c2ccc(F)cc2)NC(=O)N1 (centres unmarked) [PCM-0215810]
-28.9 | – | CC(C)(CO)[C@@H](O)C(=O)NCCC(=O)NCCSSCCNC(=O)CCNC(=O)[C@H](O)C(C)(C)CO [PCM-0216020]
-30.1 | – | CCN(CC)CCN(Cc1ccc(-c2ccc(C(F)(F)F)cc2)cc1)C(=O)Cn1c(SCc2ccc(F)cc2)nc(=O)c2c1CCC2 [PCM-0095746]
– | 0.8 | Cc1cc(N2CCN([C@@H]3CN[C@H](C(=O)N4CCSC4)C3)CC2)n(-c2ccccc2)n1 [PCM-0214840]
-30.9 | – | CC(C)(CNC(=O)c1cccc(-c2noc(C(F)(F)F)n2)c1)c1coc(-c2ccccc2)n1 [PCM-0215836]
20.1 | – | CC(C)(C)OC(=O)Nc1ccc(-c2cc(C(=O)NCCCCCCC(=O)NO)no2)cc1 [PCM-0215407]
9.4 | – | Cc1ccc(C(=O)c2ccc(CC(=O)O)n2C)cc1 [PCM-0215259]
4.6 | – | CC1(C)CC[C@]2(C(=O)O[C@@H]3O[C@H](CO)[C@@H](O)[C@H](O)[C@H]3O)CC[C@]3(C)C(=CC[C@@H]4[C@@]5(C)CC[C@H](O[C@@H]6O[C@H](C(=O)O)[C@@H](O)[C@H](O)[C@H]6O[C@@H]6O[C@H](CO)[C@@H](O)[C@H](O)[C@H]6O)C(C)(C)[C@@H]5CC[C@]43C)[C@@H]2C1 [PCM-0216395]
6.2 | – | CCC(=O)O[C@@H]1CC(=O)O[C@H](C)C/C=C/C=C/[C@H](O)[C@H](C)C[C@H](CC=O)[C@H](O[C@@H]2O[C@H](C)[C@@H](O[C@H]3C[C@@](C)(O)[C@@H](OC(=O)CC)[C@H](C)O3)[C@H](N(C)C)[C@H]2O)[C@H]1OC [PCM-0216255]
20 | – | C[C@H](NC(=O)c1c(N)nn2cccnc12)c1cc2cccc(C#Cc3cnn(C)c3)c2c(=O)n1-c1ccccc1 [PCM-0215846]
30.9 | – | O=C(/C=C/c1ccc(O)c(O)c1/C=C/c1ccc(O)c(O)c1)O[C@H](Cc1ccc(O)c(O)c1)C(=O)O [PCM-0216354]
-22.4 | – | COc1ccc(S(=O)(=O)NCc2ccc(C(=O)NCCc3ccc(Cl)cn3)cc2)cc1 [PCM-0215817]
11.6 | – | CCCCCCCCCC(=O)OCC(COC(=O)CCCCCCCCC)OC(=O)CCCCCCCCC [PCM-0216614]
1.5 | – | OC[C@H]1O[C@@H](c2ccc(F)c(Cc3cc4ccccc4s3)c2)[C@H](O)[C@@H](O)[C@@H]1O [PCM-0215870]
119 | – | C=CC(=O)N1CCC(Oc2cc3c(Nc4ccc(Cl)c(Cl)c4F)ncnc3cc2OC)CC1 [PCM-0215416]
